Data as given in ChEMBL document CHEMBL1255512, “Pyrazolo[1,5-a]pyrimidine acetamides: 4-Phenyl alkyl ether derivatives as potent ligands for the 18 kDa translocator protein (TSPO)” (Bioorg Med Chem Lett, 2010).

Legend:
[1] = biological target: T1, D(4) dopamine receptor (Homo sapiens) (UniProt P21917); experiment: Inhibition of D4 dopamine receptor at 10 uM
T1 sequence (whole entry): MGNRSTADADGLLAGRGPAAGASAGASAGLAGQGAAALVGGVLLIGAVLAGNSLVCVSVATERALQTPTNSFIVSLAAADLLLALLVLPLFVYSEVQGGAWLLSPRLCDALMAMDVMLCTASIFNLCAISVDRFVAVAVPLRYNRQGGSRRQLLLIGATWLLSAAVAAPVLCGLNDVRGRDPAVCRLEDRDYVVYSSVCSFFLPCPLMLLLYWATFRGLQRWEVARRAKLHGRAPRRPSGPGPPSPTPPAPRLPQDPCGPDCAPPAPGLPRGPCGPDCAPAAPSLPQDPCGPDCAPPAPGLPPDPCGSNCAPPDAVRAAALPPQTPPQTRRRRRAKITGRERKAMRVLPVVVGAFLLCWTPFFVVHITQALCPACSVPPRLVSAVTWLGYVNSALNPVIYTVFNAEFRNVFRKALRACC

[2] = biological target: Histamine H3 receptor (Homo sapiens) (UniProt Q9Y5N1); experiment: Inhibition of H3 receptor at 10 uM
Histamine H3 receptor (Homo sapiens), sequence (Q9Y5N1 whole entry): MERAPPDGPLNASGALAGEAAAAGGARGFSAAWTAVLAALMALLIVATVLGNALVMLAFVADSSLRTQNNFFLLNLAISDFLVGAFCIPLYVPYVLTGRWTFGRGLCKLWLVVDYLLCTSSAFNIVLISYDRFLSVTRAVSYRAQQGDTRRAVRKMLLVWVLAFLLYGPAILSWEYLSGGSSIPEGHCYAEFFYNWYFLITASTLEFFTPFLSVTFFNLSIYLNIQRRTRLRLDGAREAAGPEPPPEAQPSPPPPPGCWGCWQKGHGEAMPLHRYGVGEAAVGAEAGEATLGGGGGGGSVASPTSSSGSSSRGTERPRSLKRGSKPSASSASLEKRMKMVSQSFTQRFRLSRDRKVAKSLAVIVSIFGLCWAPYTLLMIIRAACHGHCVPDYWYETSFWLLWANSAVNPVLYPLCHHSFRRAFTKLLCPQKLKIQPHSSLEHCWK

[3] = biological target: 5-hydroxytryptamine receptor 2A (Homo sapiens) (UniProt P28223); experiment: Inhibition of 5-HT2A receptor at 10 uM
5-hydroxytryptamine receptor 2A (Homo sapiens), sequence (P28223 whole entry): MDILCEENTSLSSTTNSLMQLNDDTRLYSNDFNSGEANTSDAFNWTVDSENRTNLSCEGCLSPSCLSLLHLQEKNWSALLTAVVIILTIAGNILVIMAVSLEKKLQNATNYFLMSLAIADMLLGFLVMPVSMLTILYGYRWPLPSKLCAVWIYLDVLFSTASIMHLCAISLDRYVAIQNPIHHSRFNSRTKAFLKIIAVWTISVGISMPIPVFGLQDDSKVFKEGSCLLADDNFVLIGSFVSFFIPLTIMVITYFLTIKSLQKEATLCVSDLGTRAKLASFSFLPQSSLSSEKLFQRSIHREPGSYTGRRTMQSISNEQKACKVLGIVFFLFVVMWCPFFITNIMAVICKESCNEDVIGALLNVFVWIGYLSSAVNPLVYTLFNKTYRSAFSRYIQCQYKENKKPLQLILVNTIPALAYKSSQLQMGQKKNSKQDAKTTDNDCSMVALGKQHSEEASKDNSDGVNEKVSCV

[4] = biological target: Mu-type opioid receptor (Homo sapiens) (UniProt P35372); experiment: Inhibition of mu opioid receptor at 10 uM
Mu-type opioid receptor (Homo sapiens), sequence (P35372 whole entry): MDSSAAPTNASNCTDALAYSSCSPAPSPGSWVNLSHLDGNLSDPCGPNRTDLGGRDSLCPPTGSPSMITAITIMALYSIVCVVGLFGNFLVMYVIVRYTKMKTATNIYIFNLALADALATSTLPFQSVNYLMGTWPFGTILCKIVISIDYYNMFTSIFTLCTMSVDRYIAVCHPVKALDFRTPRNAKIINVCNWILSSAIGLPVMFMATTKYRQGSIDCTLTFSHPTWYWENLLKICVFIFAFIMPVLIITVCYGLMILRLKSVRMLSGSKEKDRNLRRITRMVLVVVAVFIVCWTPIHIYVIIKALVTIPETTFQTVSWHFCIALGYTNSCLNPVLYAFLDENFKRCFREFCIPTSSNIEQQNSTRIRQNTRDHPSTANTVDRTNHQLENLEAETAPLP

[5] = biological target: D(3) dopamine receptor (Homo sapiens) (UniProt P35462); experiment: Inhibition of D3 dopamine receptor at 10 uM
D(3) dopamine receptor (Homo sapiens), sequence (P35462 whole entry): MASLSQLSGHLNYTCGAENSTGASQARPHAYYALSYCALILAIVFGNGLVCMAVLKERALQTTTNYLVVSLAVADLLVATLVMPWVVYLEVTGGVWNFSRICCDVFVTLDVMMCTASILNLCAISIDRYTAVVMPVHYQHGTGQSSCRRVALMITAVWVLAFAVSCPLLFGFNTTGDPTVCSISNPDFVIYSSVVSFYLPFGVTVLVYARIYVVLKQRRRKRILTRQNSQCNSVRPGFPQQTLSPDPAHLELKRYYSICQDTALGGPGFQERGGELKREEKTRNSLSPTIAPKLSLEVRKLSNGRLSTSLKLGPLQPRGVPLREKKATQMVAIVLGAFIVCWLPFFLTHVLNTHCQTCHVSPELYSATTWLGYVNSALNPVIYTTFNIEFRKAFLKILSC

[6] = biological target: Beta-3 adrenergic receptor (Homo sapiens) (UniProt P13945); experiment: Inhibition of beta3 adrenergic receptor at 10 uM
Beta-3 adrenergic receptor (Homo sapiens), sequence (P13945 whole entry, looked up): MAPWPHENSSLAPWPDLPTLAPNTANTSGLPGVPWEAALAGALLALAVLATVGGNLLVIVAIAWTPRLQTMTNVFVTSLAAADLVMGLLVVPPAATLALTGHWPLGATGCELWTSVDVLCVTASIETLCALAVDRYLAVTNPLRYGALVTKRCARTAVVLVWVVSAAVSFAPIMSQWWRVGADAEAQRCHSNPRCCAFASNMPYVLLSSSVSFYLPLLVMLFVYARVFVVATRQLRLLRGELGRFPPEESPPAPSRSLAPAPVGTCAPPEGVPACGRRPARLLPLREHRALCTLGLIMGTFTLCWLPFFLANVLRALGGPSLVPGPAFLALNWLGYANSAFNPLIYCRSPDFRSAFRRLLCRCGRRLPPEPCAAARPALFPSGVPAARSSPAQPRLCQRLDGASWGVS

[7] = biological target: T2, 5-hydroxytryptamine receptor 2C (Homo sapiens) (UniProt P28335); experiment: Inhibition of 5-HT2C receptor at 10 uM
T2 sequence (whole entry): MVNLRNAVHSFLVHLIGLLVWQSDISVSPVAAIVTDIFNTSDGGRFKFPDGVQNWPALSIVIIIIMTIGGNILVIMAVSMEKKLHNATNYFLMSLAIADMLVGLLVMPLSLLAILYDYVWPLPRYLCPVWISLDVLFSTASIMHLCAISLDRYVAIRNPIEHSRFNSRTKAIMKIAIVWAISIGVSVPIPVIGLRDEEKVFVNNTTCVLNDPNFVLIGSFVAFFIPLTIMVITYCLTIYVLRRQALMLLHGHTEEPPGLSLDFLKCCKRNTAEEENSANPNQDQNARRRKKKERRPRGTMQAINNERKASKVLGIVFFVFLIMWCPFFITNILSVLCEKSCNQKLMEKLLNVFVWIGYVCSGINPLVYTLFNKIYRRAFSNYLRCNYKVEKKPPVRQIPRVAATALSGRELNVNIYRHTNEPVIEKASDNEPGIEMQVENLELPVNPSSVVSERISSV

[8] = biological target: Beta-2 adrenergic receptor (Homo sapiens) (UniProt P07550); experiment: Inhibition of beta2 adrenergic receptor at 10 uM
Beta-2 adrenergic receptor (Homo sapiens), sequence (P07550 whole entry, looked up): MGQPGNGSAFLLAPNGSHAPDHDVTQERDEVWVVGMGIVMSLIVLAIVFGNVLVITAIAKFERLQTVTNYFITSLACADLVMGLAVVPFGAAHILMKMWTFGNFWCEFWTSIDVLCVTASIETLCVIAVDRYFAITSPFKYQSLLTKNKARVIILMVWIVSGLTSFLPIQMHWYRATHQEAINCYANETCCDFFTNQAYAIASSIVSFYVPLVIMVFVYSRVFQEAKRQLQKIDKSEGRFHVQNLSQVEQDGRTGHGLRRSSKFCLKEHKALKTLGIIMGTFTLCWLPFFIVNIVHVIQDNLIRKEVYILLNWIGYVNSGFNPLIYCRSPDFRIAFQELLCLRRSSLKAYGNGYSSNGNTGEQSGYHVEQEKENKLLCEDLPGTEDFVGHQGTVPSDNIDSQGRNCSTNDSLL

[9] = biological target: D(2) dopamine receptor (Homo sapiens) (UniProt P14416); experiment: Inhibition of D2 dopamine receptor at 10 uM
D(2) dopamine receptor (Homo sapiens), sequence (P14416 whole entry): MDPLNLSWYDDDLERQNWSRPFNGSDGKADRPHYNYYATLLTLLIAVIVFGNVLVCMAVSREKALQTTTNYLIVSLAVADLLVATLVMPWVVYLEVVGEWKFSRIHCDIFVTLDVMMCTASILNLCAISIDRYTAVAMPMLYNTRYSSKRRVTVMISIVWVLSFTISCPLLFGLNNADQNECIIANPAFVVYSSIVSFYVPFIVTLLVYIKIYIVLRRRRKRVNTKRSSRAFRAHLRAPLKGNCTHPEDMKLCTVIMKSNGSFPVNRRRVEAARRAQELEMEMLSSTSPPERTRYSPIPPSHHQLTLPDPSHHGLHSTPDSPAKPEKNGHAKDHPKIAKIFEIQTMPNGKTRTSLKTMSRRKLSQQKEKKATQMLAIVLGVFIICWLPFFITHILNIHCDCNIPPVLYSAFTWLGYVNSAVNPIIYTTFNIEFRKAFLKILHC

[10] = biological target: Muscarinic acetylcholine receptor M3 (Homo sapiens) (UniProt P20309); experiment: Inhibition of M3 muscarinic receptor at 10 uM
Muscarinic acetylcholine receptor M3 (Homo sapiens), sequence (P20309 whole entry, looked up): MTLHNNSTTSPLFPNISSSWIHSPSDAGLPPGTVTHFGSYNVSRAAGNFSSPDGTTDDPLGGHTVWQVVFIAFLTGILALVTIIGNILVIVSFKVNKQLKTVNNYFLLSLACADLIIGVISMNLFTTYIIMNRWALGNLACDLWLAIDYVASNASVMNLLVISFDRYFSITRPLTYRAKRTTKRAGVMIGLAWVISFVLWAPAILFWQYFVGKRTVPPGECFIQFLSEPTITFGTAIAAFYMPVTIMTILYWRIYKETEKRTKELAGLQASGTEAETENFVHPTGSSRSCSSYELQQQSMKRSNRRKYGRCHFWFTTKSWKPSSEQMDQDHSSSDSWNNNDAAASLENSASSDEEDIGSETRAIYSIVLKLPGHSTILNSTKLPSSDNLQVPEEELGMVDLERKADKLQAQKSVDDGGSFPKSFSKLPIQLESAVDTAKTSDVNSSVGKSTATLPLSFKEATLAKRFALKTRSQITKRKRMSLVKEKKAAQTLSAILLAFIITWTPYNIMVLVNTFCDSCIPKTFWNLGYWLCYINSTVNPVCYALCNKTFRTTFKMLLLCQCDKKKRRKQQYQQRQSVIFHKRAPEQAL

[11] = biological target: 5-hydroxytryptamine receptor 6 (Homo sapiens) (UniProt P50406); experiment: Inhibition of 5-HT6 receptor at 10 uM
5-hydroxytryptamine receptor 6 (Homo sapiens), sequence (P50406 whole entry): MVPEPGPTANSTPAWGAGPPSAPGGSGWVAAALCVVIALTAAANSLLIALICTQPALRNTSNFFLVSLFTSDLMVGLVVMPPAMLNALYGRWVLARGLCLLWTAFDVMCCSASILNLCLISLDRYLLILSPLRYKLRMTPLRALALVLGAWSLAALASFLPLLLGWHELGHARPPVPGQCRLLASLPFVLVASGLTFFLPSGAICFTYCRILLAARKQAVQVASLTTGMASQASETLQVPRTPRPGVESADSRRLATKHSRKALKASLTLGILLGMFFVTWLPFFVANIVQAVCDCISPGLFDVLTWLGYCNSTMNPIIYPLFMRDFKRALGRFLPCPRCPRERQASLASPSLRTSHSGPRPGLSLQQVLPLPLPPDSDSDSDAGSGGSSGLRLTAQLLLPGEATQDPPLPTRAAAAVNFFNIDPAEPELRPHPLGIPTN

[12] = biological target: T3, Muscarinic acetylcholine receptor M1 (Homo sapiens) (UniProt P11229); experiment: Inhibition of M1 muscarinic receptor at 10 uM
T3 sequence (whole entry): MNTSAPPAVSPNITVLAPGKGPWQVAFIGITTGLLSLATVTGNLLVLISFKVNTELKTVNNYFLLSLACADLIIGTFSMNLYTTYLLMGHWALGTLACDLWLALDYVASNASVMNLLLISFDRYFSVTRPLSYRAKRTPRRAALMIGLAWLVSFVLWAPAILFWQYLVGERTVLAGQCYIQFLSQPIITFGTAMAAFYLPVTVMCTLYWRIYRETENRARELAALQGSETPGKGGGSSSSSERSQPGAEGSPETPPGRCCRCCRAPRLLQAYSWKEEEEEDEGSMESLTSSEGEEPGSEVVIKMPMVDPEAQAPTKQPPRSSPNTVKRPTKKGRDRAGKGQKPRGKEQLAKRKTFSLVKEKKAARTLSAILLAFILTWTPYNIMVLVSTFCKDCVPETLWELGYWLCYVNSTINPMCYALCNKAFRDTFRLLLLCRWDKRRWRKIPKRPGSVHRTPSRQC

[13] = biological target: T4, Muscarinic acetylcholine receptor M5 (Homo sapiens) (UniProt P08912); experiment: Inhibition of M5 muscarinic receptor at 10 uM
T4 sequence (whole entry): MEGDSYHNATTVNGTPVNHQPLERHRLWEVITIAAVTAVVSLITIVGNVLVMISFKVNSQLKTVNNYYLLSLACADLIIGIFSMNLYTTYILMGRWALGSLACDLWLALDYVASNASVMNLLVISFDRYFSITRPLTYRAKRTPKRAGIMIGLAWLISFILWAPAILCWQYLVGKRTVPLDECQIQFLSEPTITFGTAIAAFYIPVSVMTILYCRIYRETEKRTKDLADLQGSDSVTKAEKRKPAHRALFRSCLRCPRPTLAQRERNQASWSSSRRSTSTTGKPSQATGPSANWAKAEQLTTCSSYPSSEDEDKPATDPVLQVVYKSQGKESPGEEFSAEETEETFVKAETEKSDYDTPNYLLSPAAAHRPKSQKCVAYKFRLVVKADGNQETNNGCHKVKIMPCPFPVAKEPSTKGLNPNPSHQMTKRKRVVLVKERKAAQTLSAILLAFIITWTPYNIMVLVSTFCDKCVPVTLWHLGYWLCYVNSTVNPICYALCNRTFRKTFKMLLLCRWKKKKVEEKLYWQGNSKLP

[14] = biological target: T5, 5-hydroxytryptamine receptor 1A (Homo sapiens) (UniProt P08908); experiment: Inhibition of 5-HT1A receptor at 10 uM
T5 sequence (whole entry): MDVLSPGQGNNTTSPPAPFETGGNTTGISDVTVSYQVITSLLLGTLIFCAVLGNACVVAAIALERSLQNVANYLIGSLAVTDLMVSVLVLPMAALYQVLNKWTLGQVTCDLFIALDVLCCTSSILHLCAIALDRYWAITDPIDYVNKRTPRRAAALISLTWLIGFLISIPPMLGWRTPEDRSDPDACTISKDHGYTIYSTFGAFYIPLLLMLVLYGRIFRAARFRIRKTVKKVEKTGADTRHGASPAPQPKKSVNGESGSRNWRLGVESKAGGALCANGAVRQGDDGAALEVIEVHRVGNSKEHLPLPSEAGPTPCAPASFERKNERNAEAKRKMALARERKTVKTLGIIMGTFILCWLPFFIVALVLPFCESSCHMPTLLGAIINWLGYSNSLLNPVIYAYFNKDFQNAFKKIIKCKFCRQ

[15] = biological target: Histamine H1 receptor (Homo sapiens) (UniProt P35367); experiment: Inhibition of H1 receptor at 10 uM
Histamine H1 receptor (Homo sapiens), sequence (P35367 whole entry): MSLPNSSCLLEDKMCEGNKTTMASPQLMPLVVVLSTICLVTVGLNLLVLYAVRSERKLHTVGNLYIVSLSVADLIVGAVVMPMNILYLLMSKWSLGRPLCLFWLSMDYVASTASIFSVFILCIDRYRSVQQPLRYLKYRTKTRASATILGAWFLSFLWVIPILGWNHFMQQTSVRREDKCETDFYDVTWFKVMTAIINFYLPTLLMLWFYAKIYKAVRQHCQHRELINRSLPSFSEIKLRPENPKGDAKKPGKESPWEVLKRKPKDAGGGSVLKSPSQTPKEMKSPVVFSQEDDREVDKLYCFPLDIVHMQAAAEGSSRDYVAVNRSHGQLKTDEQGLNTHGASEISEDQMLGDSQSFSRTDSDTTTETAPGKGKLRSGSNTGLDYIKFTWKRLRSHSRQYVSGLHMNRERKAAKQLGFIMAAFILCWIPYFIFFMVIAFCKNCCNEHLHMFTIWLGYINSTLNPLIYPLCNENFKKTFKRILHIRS

inhibition [1] [%]	inhibition [2] [%]	inhibition [3] [%]	inhibition [4] [%]	inhibition [5] [%]	inhibition [6] [%]	inhibition [7] [%]	inhibition [8] [%]	inhibition [9] [%]	inhibition [10] [%]	inhibition [11] [%]	inhibition [12] [%]	inhibition [13] [%]	inhibition [14] [%]	inhibition [15] [%]	SMILES
< 50	< 50	< 50	< 50	< 50	< 50	< 50	< 50	< 50	< 50	< 50	< 50	< 50	< 50	< 50	C#CCOc1ccc(-c2nn3c(C)cc(C)nc3c2CC(=O)N(CC)CC)cc1
< 50	< 50	< 50	< 50	< 50	< 50	< 50	< 50	< 50	< 50	< 50	< 50	< 50	< 50	< 50	CCCCOc1ccc(-c2nn3c(C)cc(C)nc3c2CC(=O)N(CC)CC)cc1
< 50	< 50	< 50	< 50	< 50	< 50	< 50	< 50	< 50	< 50	< 50	< 50	< 50	< 50	< 50	CCCOc1ccc(-c2nn3c(C)cc(C)nc3c2CC(=O)N(CC)CC)cc1
< 50	< 50	< 50	< 50	< 50	< 50	< 50	< 50	< 50	< 50	< 50	< 50	< 50	< 50	< 50	CCOc1ccc(-c2nn3c(C)cc(C)nc3c2CC(=O)N(CC)CC)cc1
